Literature values in patent publication US8497291B2 (Cyclacel Limited, priority 2005, dated 2013).
Like-named read-outs stand apart in the source and are kept apart here.

Tests used:
[1] = phase I, patients with a variety of cancers
[2] = system: colon cancer; settings: model of colon cancer
[3] = system: variety of cell lines, xenograft and metastatic cancer model

SMILES: CCCCCCCCCCCCCCCC(=O)Nc1ccn([C@@H]2O[C@H](CO)[C@@H](O)[C@@H]2C#N)c(=O)n1 [CYC682, 2′-cyano-2′-deoxy-N^4-palmitoyl-1-β-D-arabinofuranosylcytosine]
- dose limiting toxicity [1]: myelosuppression
- tolerability in humans [1]: well tolerated
- anticancer activity [2]: strong anticancer activity
- increasing survival compared with gemcitabine or 5-FU [2]: superior
- preventing the spread of colon cancer metastases to the liver compared with gemcitabine or 5-FU [2]: superior
- anti-tumour activity ([3]; as demonstrated in EP 536936): excellent anti-tumour activity
- anti-tumour activity ([3]; variety of cell lines, xenograft and metastatic cancer model): potent anti-tumour activity
